Data: patent publication US20120149574A1, “Methods and Compositions for Managing Water Quality in a Body of Water” (priority 2010, published 2012)

Columns and labels:
[1] = Comparative pond treatment, single application: turbidity and total phosphorus; conditions: single application 1 ppm copper
Experimental: (§1) Two ponds of similar dimensions (0.1 surface acres, 4 foot average depth) and similar water character, located beside each other, were used in this experiment. Both ponds were treated once (immediately following the initial sampling event) with the same concentration of copper, 1 ppm, and monitored through time. One pond was treated with Composition E1 and the other with copper sulfate pentahydrate. The objectives were 1) to evaluate the change in algae assemblage composition, 2) to measure algaecidal impacts and re-growth of algae, 3) to measure changes in phosphorus and turbidity following treatment.

[2] = system: algae; test: Comparative pond treatment vs. copper sulfate alone, multiple applications: algae; assay type: in vivo, green algae (Chlorophyta), cyanobacteria (Cyanophyta)
Experimental: (§2) One pond was treated with a liquid composition prepared as in Example 1 (hereinafter termed “Composition E1”) and the other with copper sulfate pentahydrate. Both ponds were treated with the same concentration of copper on the same days. Five algaecide applications, each approximately one week apart, were conducted on the corresponding pond as a surface spray. The first application was a 1 ppm copper rate, whereas the following applications were all 0.5 ppm copper. All five treatments were completed by the 34th day following the initial treatment (“DAT”), though water sampling continued to evaluate changes in algae growth and water clarity. Representative water samples were periodically collected from each of the ponds at the same durations following treatments. […] As mentioned previously, when used alone, alum is generally applied at such high doses that a buffer is concurrently applied to prevent dramatic changes in water quality that can result in acute toxicity to aquatic organisms.

[3] = Comparative pond treatment, multiple applications: turbidity, phosphorus, water quality; conditions: five applications, FIGS. 11 and 12
Experimental: as §2

[4] = system: algae; test: Comparative pond treatment vs. copper sulfate alone, single application: algae; assay type: in vivo, green algae (Chlorophyta), cyanobacteria (Cyanophyta)
Experimental: as §1

## O.O.O.O.O.O=S(=O)([O-])[O-].[Cu+2] [copper sulfate, copper sulfate pentahydrate]
[1]; 7 DAT (FIG. 17)
  total phosphorus: little change
[1]; 14 DAT vs initial (FIG. 17)
  total phosphorus: notable increase from initial levels
[2]; after fifth application (34 DAT) (FIG. 9)
  chlorophyll levels following cessation of the algaecide treatments: rapidly and significantly increased
[2]; during and after five applications (FIGS. 13 and 14)
  algal assemblage composition: cyanobacteria (Cyanophyta) became dominant
[2]; five applications (1 ppm then 0.5 ppm copper), sampling to 69 DAT (FIG. 9), copper sulfate: many measurements, Composition E1: on one occasion
  chlorophyll a concentration, highest measurements: exceeding 100 μg/L
[3]
  total phosphorus (TP) and free reactive phosphorus (FRP) concentrations over time: substantially higher than the Composition E1-treated pond
[4]; single application 1 ppm copper (FIGS. 18 and 19)
  algal assemblage following treatment: remained dominated by cyanobacteria
[4]; single application 1 ppm copper, 7 DAT
  decrease of treated algae: 78%
[4]; single application 1 ppm copper, 7 DAT (FIG. 15)
  chlorophyll a: significantly decreased
[4]; single application 1 ppm copper, 14 DAT (FIG. 15)
  chlorophyll a: significantly higher
[4]; single application 1 ppm copper, between 7 and 14 DAT
  increase in algal densities: 350%
